Measured values from PubChem BioAssay AID2060891 (Molecular Pharmacology Branch, DTP, NCI, 2025).

System: K98450-129-R-PDC complex spheroid growth, percent test/control
Assay: Anticancer human tumor K98450-129-R-PDC patient-derived colon adenocarcinoma cell line growth inhibition [RAS]
Settings: for IC50: curve of first compound; for viability, T/C: stronger effect = lower value; active = viability on the fitted dose curve at most 10% of control; inactive = the rest
Description: RAS pathway inhibitors in Combinations in Complex Spheroids
A high-throughput screen of multi-cell type tumor spheroids was designed to identify active combinations of RAS pathway inhibitors and targeted small molecules. Complex spheroids include a stromal component modeled by human endothelial cells (HUVEC) and fibroblasts modeled by human mesenchymal stem cells (MSCs). The concentration ranges selected for each drug and investigational agent were based upon clinically achievable concentrations if the clinical Cmax of the agent was known.
Compounds. The drugs and investigational agents: abemaciclib (NSC768073), cobimetinib (NSC768068), divarasib (GDC6063, NSC841802), docetaxel (NSC628503), GDC-1971 (RLY-1971, NSC841576), gemcitabine (NSC613327), inavolisib (NSC800729), ipatasertib (NSC767898), KB-0742 (NSC834161), MRTX-1133 (NSC836407), osimertinib (NSC779217), RMC-4630 (NSC839698), RMC-6236 (NSC851965), RMC-6291 (NSC852671), Ro-3306 (NSC812927), sapanisertib (NSC764658), SN-38 (NSC673596), staurosporine (NSC755774), SY5609 (NSC837396), and tovorafenib (DAY101, NSC766906), were obtained from the National Cancer Institute (NCI) Developmental Therapeutics Program Chemical Repository. The FDA-approved anticancer drug set is available from the NCI Developmental Therapeutics Program. […] The stock solutions were prepared in dimethyl sulfoxide (DMSO, Sigma-Aldrich, St. Louis, MO, cat. D2650) at 800-fold the tested concentration and stored at -70 degrees C prior to their use. All drugs and investigational agents were tested over a range starting from a high concentration at or near the clinical Cmax and decreasing in half-log increments. If the clinical Cmax for an agent had not been determined, the highest concentration tested was 10 microM.
Cell Culture. All cells were maintained in an incubator at 37 degrees C and 5% CO2 with 95% humidity. The PDC lines were cultured according to standard operating procedures established by the NCI PDMR. All PDCs were thawed and cultured in Matrigel-coated flasks prepared with a working solution of 1X Ham's F-12 nutrient mix, without supplementation (Invitrogen, Waltham, MA, cat. 11765054), 100 U/mL penicillin-streptomycin (Invitrogen, cat. 15140122), and 2.5% Matrigel (Corning Inc., Corning, NY, cat. 354248) for the first three passages. The 362531-283-R-J2-PDC and 782815-120-R-J1-PDC lines were cultured in 6C/Colon 1B media, which includes advanced DMEM/F-12 (Thermo Fisher Scientific, cat. 12634028), 10 mM HEPES (Thermo Fisher Scientific, cat. 15630080), 1X GlutaMAX supplement (Thermo Fisher Scientific, cat. 35050061), 0.1 mg/mL primocin (InvivoGen, San Diego, CA, cat. ant-pm-2), 10% defined fetal bovine serum, heat inactivated (HyClone Laboratories Inc., Logan, UT, cat. SH30070.03HI), 50% L-WRN conditioned media (ATCC, cat. CRL-3276), 1.25 mM N-Acetyl-L-cysteine (Sigma-Aldrich, cat. A9165), 10 mM nicotinamide (Sigma-Aldrich, cat. N0636), 1X B-27 supplement (Thermo Fisher Scientific, cat. 17504044), 1X N-2 supplement (Thermo Fisher Scientific, cat. 17502048), 50 ng/mL human EGF (Thermo Fisher Scientific, cat. PHG0311), and 10 microM Y-27632 dihydrochloride (Tocris Bioscience, cat. 1254). The K12877-001-R-J1-PDC line was cultured in 6I media, which includes all 6C/Colon 1B media plus 10 ng/mL human FGF-10 (PeproTech, cat. 100-26), 1 ng/mL human FGF-2 (PeproTech, cat. 100-18B), 1 µM prostaglandin E2 (Tocris Bioscience, cat. 2296), […] hydrocortisone (Sigma-Aldrich, cat. H4001), and […] bovine insulin (Sigma-Aldrich, cat. I6634). The K86415-001-R-J1-PDC line was cultured in 6D media, which includes all 6C/Colon 1B media components minus the L-WRN conditioned media. The 485176-168-R4-J1-PDC was cultured in PANC media, which includes all 6C/Colon 1B media plus 100 ng/mL human FGF-10 (PeproTech, cat. 100-26), 500 nM SB-431542 (Selleckchem, cat. S1067), and 10 nM gastrin (Tocris Bioscience, cat. 3006). […]

[1] = second compound 0.0316 µM, first compound 0.0316 µM
[2] = second compound 0.0316 µM, first compound 0.1 µM
[3] = second compound 0.0316 µM, first compound 0.316 µM
[4] = second compound 0.0316 µM, first compound 1 µM
[5] = second compound 0.0316 µM, first compound 3.16 µM
[6] = second compound 0.0316 µM, first compound 10 µM
[7] = second compound 0.1 µM, first compound 0.0316 µM
[8] = second compound 0.1 µM, first compound 0.1 µM
[9] = second compound 0.1 µM, first compound 0.316 µM
[10] = second compound 0.1 µM, first compound 1 µM
[11] = second compound 0.1 µM, first compound 3.16 µM
[12] = second compound 0.1 µM, first compound 10 µM
[13] = second compound 0.316 µM, first compound 0.0316 µM
[14] = second compound 0.316 µM, first compound 0.1 µM
[15] = second compound 0.316 µM, first compound 0.316 µM
[16] = second compound 0.316 µM, first compound 1 µM
[17] = second compound 0.316 µM, first compound 3.16 µM
[18] = second compound 0.316 µM, first compound 10 µM
[19] = second compound 1 µM, first compound 0.0316 µM
[20] = second compound 1 µM, first compound 0.1 µM
[21] = second compound 1 µM, first compound 0.316 µM
[22] = second compound 1 µM, first compound 1 µM
[23] = second compound 1 µM, first compound 3.16 µM
[24] = second compound 1 µM, first compound 10 µM
[25] = second compound 3.16 µM, first compound 0.0316 µM
[26] = second compound 3.16 µM, first compound 0.1 µM
[27] = second compound 3.16 µM, first compound 0.316 µM
[28] = second compound 3.16 µM, first compound 1 µM
[29] = second compound 3.16 µM, first compound 3.16 µM
[30] = second compound 3.16 µM, first compound 10 µM
[31] = second compound 10 µM, first compound 0.0316 µM
[32] = second compound 10 µM, first compound 0.1 µM
[33] = second compound 10 µM, first compound 0.316 µM
[34] = second compound 10 µM, first compound 1 µM
[35] = second compound 10 µM, first compound 3.16 µM
[36] = second compound 10 µM, first compound 10 µM
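Also: spheroids exposed to agents for seven days before the viability readout.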
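For viability, T/C in this document: luminescence used as a proxy for viable cell amount.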

Cc1nc(N2CCC3(CC2)COC(C)C3N)c(CO)nc1Sc1ccnc(N)c1Cl (stereo unspecified) + C#Cc1c(F)ccc2cc(O)cc(-c3ncc4c(N5CC6CCC(C5)N6)nc(OCC56CCCN5CC(F)C6)nc4c3F)c12
3130 nM: IC50 (second compound 0.1 µM)
1070 nM: IC50 (second compound 3.16 µM)
513 nM: IC50 (second compound 10 µM)
2240 nM: IC50 (second compound 0.316 µM)
active: viability, T/C [30] 10.5% | viability, T/C [36] 7.51%
3010 nM: IC50 (second compound 0.0316 µM)
1720 nM: IC50 (second compound 1 µM)
inactive: viability, T/C [1] 104% | viability, T/C [2] 93.3% | viability, T/C [3] 88.8% | viability, T/C [4] 75.8% | viability, T/C [5] 46.9% | viability, T/C [6] 25% | viability, T/C [7] 112% | viability, T/C [8] 93.5% | viability, T/C [9] 83.6% | viability, T/C [10] 80.8% | viability, T/C [11] 45.3% | viability, T/C [12] 21.5% | viability, T/C [13] 101% | viability, T/C [14] 97.5% | viability, T/C [15] 86.1% | viability, T/C [16] 66.6% | viability, T/C [17] 43.1% | viability, T/C [18] 19.8% | viability, T/C [19] 97% | viability, T/C [20] 98.9% | viability, T/C [21] 84% | viability, T/C [22] 64.3% | viability, T/C [23] 34.3% | viability, T/C [24] 12.9% | viability, T/C [25] 91.2% | viability, T/C [26] 82% | viability, T/C [27] 79.8% | viability, T/C [28] 52.7% | viability, T/C [29] 17.1% | viability, T/C [31] 83.4% | viability, T/C [32] 82.2% | viability, T/C [33] 62.8% | viability, T/C [34] 31.7% | viability, T/C [35] 11.4%

NC1c2ccccc2OC12CCN(c1cnc3c(N4CCCc5ncccc54)n[nH]c3n1)CC2 (stereo unspecified) + C#Cc1c(F)ccc2cc(O)cc(-c3ncc4c(N5CC6CCC(C5)N6)nc(OCC56CCCN5CC(F)C6)nc4c3F)c12
195 nM: IC50 (second compound 0.0316 µM)
48 nM: IC50 (second compound 10 µM)
189 nM: IC50 (second compound 0.1 µM)
active: viability, T/C [11] 9.92% | viability, T/C [12] 6.11% | viability, T/C [16] 10.3% | viability, T/C [17] 8.37% | viability, T/C [18] 6.2% | viability, T/C [22] 8.69% | viability, T/C [23] 6.98% | viability, T/C [24] 6.07% | viability, T/C [28] 7.66% | viability, T/C [29] 5.66% | viability, T/C [30] 4.62% | viability, T/C [33] 7.94% | viability, T/C [34] 6.21% | viability, T/C [35] 4.84% | viability, T/C [36] 2.23%
inactive: viability, T/C [1] 92.2% | viability, T/C [2] 73.8% | viability, T/C [3] 32.1% | viability, T/C [4] 17.4% | viability, T/C [5] 11.8% | viability, T/C [6] 9.37% | viability, T/C [7] 97.8% | viability, T/C [8] 72.7% | viability, T/C [9] 31.3% | viability, T/C [10] 14% | viability, T/C [13] 96.6% | viability, T/C [14] 70.2% | viability, T/C [15] 23.4% | viability, T/C [19] 91.2% | viability, T/C [20] 65.2% | viability, T/C [21] 14.2% | viability, T/C [25] 78.2% | viability, T/C [26] 41.1% | viability, T/C [27] 10.8% | viability, T/C [31] 63.9% | viability, T/C [32] 25.6%
165 nM: IC50 (second compound 0.316 µM)
75.8 nM: IC50 (second compound 3.16 µM)
141 nM: IC50 (second compound 1 µM)

Nc1ccn(C2OC(CO)C(O)C2(F)F)c(=O)n1 (stereo unspecified) + C#Cc1c(F)ccc2cc(O)cc(-c3ncc4c(N5CC6CCC(C5)N6)nc(OCC56CCCN5CC(F)C6)nc4c3F)c12
inactive: viability, T/C (second compound 0.0316 µM, first compound 0.00316 µM) 109% | viability, T/C (second compound 0.0316 µM, first compound 0.01 µM) 99.1% | viability, T/C [1] 65.4% | viability, T/C [2] 44.8% | viability, T/C [3] 35.6% | viability, T/C [4] 29.6% | viability, T/C (second compound 0.1 µM, first compound 0.00316 µM) 115% | viability, T/C (second compound 0.1 µM, first compound 0.01 µM) 106% | viability, T/C [7] 73.5% | viability, T/C [8] 47% | viability, T/C [9] 37.8% | viability, T/C [10] 29.7% | viability, T/C (second compound 0.316 µM, first compound 0.00316 µM) 107% | viability, T/C (second compound 0.316 µM, first compound 0.01 µM) 96.3% | viability, T/C [13] 75.4% | viability, T/C [14] 44.4% | viability, T/C [15] 33.9% | viability, T/C [16] 30.5% | viability, T/C (second compound 1 µM, first compound 0.00316 µM) 101% | viability, T/C (second compound 1 µM, first compound 0.01 µM) 94.7% | viability, T/C [19] 68.1% | viability, T/C [20] 43.3% | viability, T/C [21] 38% | viability, T/C [22] 31.9% | viability, T/C (second compound 3.16 µM, first compound 0.00316 µM) 95.7% | viability, T/C (second compound 3.16 µM, first compound 0.01 µM) 90% | viability, T/C [25] 70.2% | viability, T/C [26] 46.9% | viability, T/C [27] 39.5% | viability, T/C [28] 31.1% | viability, T/C (second compound 10 µM, first compound 0.00316 µM) 92.5% | viability, T/C (second compound 10 µM, first compound 0.01 µM) 87.9% | viability, T/C [31] 71.6% | viability, T/C [32] 46.6% | viability, T/C [33] 37.2% | viability, T/C [34] 32.4%
87.7 nM: IC50 (second compound 0.1 µM)
72.2 nM: IC50 (second compound 0.0316 µM)
90.5 nM: IC50 (second compound 3.16 µM)
83.8 nM: IC50 (second compound 0.316 µM)
87.5 nM: IC50 (second compound 10 µM)
74.2 nM: IC50 (second compound 1 µM)
